According to patent EP0908457B1, “3-(1,2-benzisothiazol- and isoxazol-5-Y1)-2,4(1H,3H)-pyrimidinedione or thione and 3-(1,2-benzisothiazol- and isoxazol-5-y1)-4(3H)-pyrimidinone or thione herbicidal agents” (BASF AKTIENGESELLSCHAFT, priority 1997, dated 1999):

Assays:
Sagittaria pygmaea, L. = experiment: Preemergence weed control under flooded paddy conditions, SAGPY (Arrowhead (Pygmaea)); assay type: in vivo; conditions: flooded paddy
[1] = test system: Oryza sativa, (L.) Tebonnet; experiment: Rice tolerance to post-transplant applications under flooded paddy conditions (Example 187), ORYSAT (Rice, Tebonnet)
Cyperus iria = experiment: Preemergence weed control under flooded paddy conditions, CYPIR (Rice Flatsedge); assay type: in vivo; conditions: flooded paddy
[2] = test system: Monochoria vaginalis, Presl.; experiment: Preemergence weed control under flooded paddy conditions, MOOVA (Monochoria); assay type: in vivo; conditions: flooded paddy
[3] = test system: Echinochloa oryzoides (Ard.) Fritsch.; experiment: Preemergence weed control under flooded paddy conditions, ECHORC (Watergrass (Calif.)); assay type: in vivo; conditions: flooded paddy
[4] = test system: Cyperus serotinus, Rottb.; experiment: Preemergence weed control under flooded paddy conditions, CYPSE (Flatsedge); assay type: in vivo
[5] = Rate 0.0320 kg/ha, preemergence weeds, rated three to four weeks after treatment
[6] = Rate 0.0620 kg/ha, preemergence weeds, rated three to four weeks after treatment
[7] = Rate 0.1250 kg/ha, preemergence weeds, rated three to four weeks after treatment
[8] = Rate 0.2500 kg/ha, preemergence weeds, rated three to four weeks after treatment
[9] = Rate 0.0320 kg/ha, preemergence, rated 3-4 weeks after treatment
[10] = Rate 0.0620 kg/ha, preemergence, rated 3-4 weeks after treatment
[11] = Rate 0.1250 kg/ha, preemergence, rated 3-4 weeks after treatment
[12] = Rate 0.2500 kg/ha, preemergence, rated 3-4 weeks after treatment
Note: meaning of each grade not given here.

SMILES: Cn1c(C(F)(F)F)cc(=O)n(-c2ccc3snc(C(N)=O)c3c2)c1=O [Example 322, 1,2-Benzisothiazole-3-carboxamide, 5-[3,6-dihydro-3-methyl-2,6-dioxo-4-(trifluoromethyl)-1(2H)-pyrimidinyl]-]
- herbicidal effect rating, SAGPY (Sagittaria pygmaea, L.; [5]): 3.0
- herbicidal effect rating, SAGPY (Sagittaria pygmaea, L.; [6]): 3.0
- herbicidal effect rating, SAGPY (Sagittaria pygmaea, L.; [7]): 3.0
- herbicidal effect rating, SAGPY (Sagittaria pygmaea, L.; [8]): 9.0
- herbicidal effect rating ORYSAT ([1]; Rate 0.0320 kg/ha, rated three to four weeks after treatment): 5.0
- herbicidal effect rating ORYSAT ([1]; Rate 0.0620 kg/ha, rated three to four weeks after treatment): 5.0
- herbicidal effect rating ORYSAT ([1]; Rate 0.1250 kg/ha, rated three to four weeks after treatment): 5.0
- herbicidal effect rating ORYSAT ([1]; Rate 0.2500 kg/ha, rated three to four weeks after treatment): 7.0
- herbicidal effect rating, CYPIR (Cyperus iria; [5]): 4.0
- herbicidal effect rating, CYPIR (Cyperus iria; [6]): 6.0
- herbicidal effect rating, CYPIR (Cyperus iria; [7]): 7.0
- herbicidal effect rating, CYPIR (Cyperus iria; [8]): 9.0
- herbicidal effect rating, MOOVA [2, 5]: 5.0
- herbicidal effect rating, MOOVA [2, 6]: 9.0
- herbicidal effect rating, MOOVA [2, 7]: 9.0
- herbicidal effect rating, MOOVA [2, 8]: 9.0
- herbicidal effect rating, ECHORC [3, 5]: 9.0
- herbicidal effect rating, ECHORC [3, 6]: 9.0
- herbicidal effect rating, ECHORC [3, 7]: 9.0
- herbicidal effect rating, ECHORC [3, 8]: 9.0
- herbicidal effect rating, CYPSE [4, 5]: 5.0
- herbicidal effect rating, CYPSE [4, 6]: 5.0
- herbicidal effect rating, CYPSE [4, 7]: 6.0
- herbicidal effect rating, CYPSE [4, 8]: 9.0

SMILES: Cc1ccc(OCC(=O)OCC(C)(C)Cc2ccccc2)c(-c2nsc3ccc(-n4c(=O)cc(C(F)(F)F)n(C)c4=O)cc23)c1 [Example 527, Acetic acid, {{2-{5-[3,6-dihydro-3-methyl-2,6-dioxo-4-(trifluoromethyl)-1(2H)-pyrimidinyl)-1,2-benzisothiazol-3-yl}-p-tolyl}oxy}-, 2,2-dimethyl-3-phenylpropyl ester]
- herbicidal effect rating, SAGPY (Sagittaria pygmaea, L.; [9]): 0.0
- herbicidal effect rating, SAGPY (Sagittaria pygmaea, L.; [10]): 0.0
- herbicidal effect rating, SAGPY (Sagittaria pygmaea, L.; [11]): 0.0
- herbicidal effect rating, SAGPY (Sagittaria pygmaea, L.; [12]): 0.0
- herbicidal effect rating ORYSAT ([1]; Rate 0.0320 kg/ha, rated 3-4 weeks after treatment): 2.0
- herbicidal effect rating ORYSAT ([1]; Rate 0.0620 kg/ha, rated 3-4 weeks after treatment): 2.5
- herbicidal effect rating ORYSAT ([1]; Rate 0.1250 kg/ha, rated 3-4 weeks after treatment): 2.5
- herbicidal effect rating ORYSAT ([1]; Rate 0.2500 kg/ha, rated 3-4 weeks after treatment): 4.0
- herbicidal effect rating, CYPIR (Cyperus iria; [9]): 2.0
- herbicidal effect rating, CYPIR (Cyperus iria; [10]): 2.0
- herbicidal effect rating, CYPIR (Cyperus iria; [11]): 4.0
- herbicidal effect rating, CYPIR (Cyperus iria; [12]): 4.0
- herbicidal effect rating, MOOVA [2, 9]: 9.0
- herbicidal effect rating, MOOVA [2, 10]: 9.0
- herbicidal effect rating, MOOVA [2, 11]: 9.0
- herbicidal effect rating, MOOVA [2, 12]: 9.0
- herbicidal effect rating, ECHORC [3, 9]: 3.0
- herbicidal effect rating, ECHORC [3, 10]: 8.0
- herbicidal effect rating, ECHORC [3, 11]: 9.0
- herbicidal effect rating, ECHORC [3, 12]: 9.0
- herbicidal effect rating, CYPSE [4, 9]: 0.0
- herbicidal effect rating, CYPSE [4, 10]: 0.0
- herbicidal effect rating, CYPSE [4, 11]: 0.0
- herbicidal effect rating, CYPSE [4, 12]: 0.0
